Source: ChEMBL document CHEMBL1201862, “PubChem BioAssay data set” (2004)
Calls of active or inactive are those of the source.

Tests used:
[1] = biological target: T1, Polyadenylate-binding protein 1 (Homo sapiens, UniProt P11940); assay: PABP1 MLLE–PAM2 binding inhibitor potency, dose response, biochemical, fluorescence polarization, FITC-PAM2 peptide (AID 602259); assay type: functional; conditions: read-out: IC50_Mean
[2] = biological target: DNA dC->dU-editing enzyme APOBEC-3G (Homo sapiens, UniProt Q9HC16); assay: Dose Response confirmation of small molecule APOBEC3G DNA Deaminase Inhibitors via a fluorescence-based single-stranded DNA deaminase assay. [Related pubchem assays (depositor defined):AID493012, AID493028]; assay type: functional
[3] = biological target: T1, Polyadenylate-binding protein 1; assay: PABP1 MLLE–PAM2 interaction inhibitors, dose response, miRNA deadenylation inhibitor project, biochemical, fluorescence polarization, Cy5-PAM2 peptide, secondary (AID 602260); assay type: functional; conditions: read-out: IC50_Mean
[4] = biological target: T2, Nucleotide-binding oligomerization domain-containing protein 1 (Homo sapiens, UniProt Q9Y239); assay: NOD1 signaling inhibitors, SAR follow-up, revised (AID 2333); assay type: functional
T2 sequence (Q9Y239 whole entry): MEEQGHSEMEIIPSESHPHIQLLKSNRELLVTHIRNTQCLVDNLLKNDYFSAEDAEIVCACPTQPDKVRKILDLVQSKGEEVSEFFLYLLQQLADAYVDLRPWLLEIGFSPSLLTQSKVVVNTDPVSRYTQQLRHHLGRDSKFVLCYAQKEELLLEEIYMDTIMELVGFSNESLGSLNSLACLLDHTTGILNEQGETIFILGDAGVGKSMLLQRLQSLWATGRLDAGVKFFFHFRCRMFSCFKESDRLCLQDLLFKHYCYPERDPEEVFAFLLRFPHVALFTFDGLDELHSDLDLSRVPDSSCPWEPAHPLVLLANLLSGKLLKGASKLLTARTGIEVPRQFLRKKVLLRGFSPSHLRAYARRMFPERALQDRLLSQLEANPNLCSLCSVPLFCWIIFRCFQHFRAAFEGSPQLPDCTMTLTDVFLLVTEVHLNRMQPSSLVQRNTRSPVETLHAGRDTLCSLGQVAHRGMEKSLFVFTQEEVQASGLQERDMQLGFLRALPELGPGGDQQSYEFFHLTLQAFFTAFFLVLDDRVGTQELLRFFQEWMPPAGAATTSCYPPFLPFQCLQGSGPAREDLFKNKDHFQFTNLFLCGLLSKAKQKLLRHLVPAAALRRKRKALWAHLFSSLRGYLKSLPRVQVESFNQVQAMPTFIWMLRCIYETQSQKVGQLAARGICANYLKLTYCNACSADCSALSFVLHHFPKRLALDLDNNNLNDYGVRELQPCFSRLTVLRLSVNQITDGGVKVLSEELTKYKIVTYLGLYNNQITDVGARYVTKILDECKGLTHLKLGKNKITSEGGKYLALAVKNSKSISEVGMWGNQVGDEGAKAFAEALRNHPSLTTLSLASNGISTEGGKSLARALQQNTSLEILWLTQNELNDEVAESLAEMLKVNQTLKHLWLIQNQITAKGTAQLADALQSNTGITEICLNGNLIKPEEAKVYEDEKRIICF

[5] = biological target: Tumor necrosis factor (Homo sapiens, UniProt P01375); assay: TNFa-triggered NF-kB activation inhibitors, SAR follow-up, cell-based, revised (AID 2337); assay type: functional
[6] = test system: HEK293; assay: cells; conditions: Homo sapiens;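 further: cells exposed to compound for 14 hours overnight before viability readout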
[7] = biological target: Nucleotide-binding oligomerization domain-containing protein 2 (Homo sapiens, UniProt Q9HC29); assay: PubChem AID 2334; assay type: functional
[8] = biological target: Bcl-2-like protein 10 (Homo sapiens, UniProt Q9HD36); assay: displacers of TR3 peptide from Bcl-B, primary screen, selectivity assay for Bfl-1 inhibitor project, biochemical, fluorescence polarization, FITC-TR3 peptide (AID 748);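 further: fluorescence polarization from a fluorescein-labelled TR3 peptide binding purified Bcl-B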
[9] = biological target: T3, Caspase-3 (Homo sapiens, UniProt P42574); assay: procaspase-3 activators, dose response, biochemical, absorbance (AID 489014)
T3 sequence (P42574 whole entry): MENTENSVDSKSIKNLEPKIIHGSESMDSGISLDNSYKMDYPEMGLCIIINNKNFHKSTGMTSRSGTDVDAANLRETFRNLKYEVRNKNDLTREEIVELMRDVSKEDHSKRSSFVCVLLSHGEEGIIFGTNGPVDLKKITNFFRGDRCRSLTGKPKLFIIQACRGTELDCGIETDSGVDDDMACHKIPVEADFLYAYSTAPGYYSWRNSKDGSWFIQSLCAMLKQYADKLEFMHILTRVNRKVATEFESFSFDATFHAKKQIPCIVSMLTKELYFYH

[10] = biological target: Caspase-7 (Homo sapiens, UniProt P55210); assay: procaspase-7 activators, dose response, counter-screen for procaspase-3 activator project, biochemical, absorbance (AID 489013)
[11] = biological target: G-protein coupled receptor 35 (Homo sapiens, UniProt Q9HC97); assay: GPR35 antagonists blocking zaprinast-driven arrestin recruitment, primary screen, imaging, U2OS, beta-arrestin-GFP, zaprinast agonist (AID 2058); assay type: functional;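 further: antagonist potency meaning inhibition of agonist-induced arrestin redistribution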
[12] = biological target: Beta-2 adrenergic receptor (Homo sapiens, UniProt P07550); assay: beta2AR agonists driving receptor internalization, dose response, cell-based, FAP fluorogen, flow cytometry, cherry pick 1 (AID 588763); assay type: functional
[13] = biological target: X-box-binding protein 1 (Homo sapiens, UniProt P17861); assay type: functional, Cricetulus griseus;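 further: confirmatory dose-response counter-screen serving a CHOP assay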
[14] = inhibitors of SNCA 5'UTR-driven reporter translation, confirmation, H4 neuroglioma cells, luminescence (AID 1988); assay type: functional, cell-based
[15] = biological target: Voltage-dependent T-type calcium channel subunit alpha-1H (Homo sapiens, UniProt O95180); assay type: functional;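 further: channel activity triggered by adding a high calcium stimulation buffer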
[16] = inhibitors of firefly luciferase expression or activity, dose response, H4 neuroglioma cells, luminescence (AID 1990); assay type: functional, cell-based
[17] = Luminescence Cell-Based Dose Response HTS to Identify Inhibitors of 5'UTR Stem-Loop Driven Prion Protein mRNA Translation in H4 Neuroglioblastoma Cells. [Related pubchem assays: 1827 (Project Summary), 1813 (Primary HTS)]; assay type: functional
[18] = biological target: T4, Neuropeptides B/W receptor type 1 (Homo sapiens, UniProt P48145); assay: GPR7 antagonist potency, late-stage follow-up, cell-based, fluorescence, dose response (AID 463251); assay type: functional
T4 sequence (P48145 whole entry): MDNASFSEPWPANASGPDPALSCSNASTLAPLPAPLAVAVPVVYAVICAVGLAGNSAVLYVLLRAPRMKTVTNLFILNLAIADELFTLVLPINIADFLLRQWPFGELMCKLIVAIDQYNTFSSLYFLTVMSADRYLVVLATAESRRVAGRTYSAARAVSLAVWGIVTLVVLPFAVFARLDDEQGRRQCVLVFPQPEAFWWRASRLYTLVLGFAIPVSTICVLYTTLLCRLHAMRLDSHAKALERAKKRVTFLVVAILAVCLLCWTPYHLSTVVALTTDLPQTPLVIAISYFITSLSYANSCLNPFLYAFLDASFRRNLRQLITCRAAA

[19] = biological target: Melanin-concentrating hormone receptor 1 (Homo sapiens, UniProt Q99705); assay: Late-stage fluorescence-based counterscreen for antagonists of the G-protein coupled receptor 7 (GPR7): cell-based dose response assay to identify antagonists of the melanin-concentrating hormone receptor 1 (MCHR1). [Related pubchem assays (depositor defined):AID1861, AID1880, AID1952, AID2148, AID2251, AID2257, AID485339]; assay type: functional;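 further: stimulated with 30 nM MCH peptide agonist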
[20] = biological target: Aryl hydrocarbon receptor (Homo sapiens, UniProt P35869); assay: Luminescence-based cell-based high throughput dose response assay for activators of the Aryl Hydrocarbon Receptor (AHR). [Related pubchem assays: 2796 (Primary screen (AHR activators in singlicate)), 2845 (Confirmation screen (AHR activators in triplicate)), 434939 (Counterscreen (PXR activators in triplicate)), 2804 (Summary (AHR activators))]; assay type: ADME
[21] = biological target: Eukaryotic translation initiation factor 4E (Mus musculus, UniProt P63073); assay: eIF4E–eIF4G protein interaction inhibitors, dose response, biochemical, TR-FRET (AID 855); assay type: functional;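 further: potency for disrupting eIF4E binding to eIF4GI seen as loss of FRET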
Eukaryotic translation initiation factor 4E, sequence (P63073 whole entry): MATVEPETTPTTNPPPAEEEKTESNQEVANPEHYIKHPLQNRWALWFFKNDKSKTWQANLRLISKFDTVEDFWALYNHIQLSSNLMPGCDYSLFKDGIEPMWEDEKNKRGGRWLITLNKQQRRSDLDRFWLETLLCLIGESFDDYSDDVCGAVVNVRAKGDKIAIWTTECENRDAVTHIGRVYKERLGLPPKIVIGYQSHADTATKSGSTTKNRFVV

T1 sequence (P11940 whole entry): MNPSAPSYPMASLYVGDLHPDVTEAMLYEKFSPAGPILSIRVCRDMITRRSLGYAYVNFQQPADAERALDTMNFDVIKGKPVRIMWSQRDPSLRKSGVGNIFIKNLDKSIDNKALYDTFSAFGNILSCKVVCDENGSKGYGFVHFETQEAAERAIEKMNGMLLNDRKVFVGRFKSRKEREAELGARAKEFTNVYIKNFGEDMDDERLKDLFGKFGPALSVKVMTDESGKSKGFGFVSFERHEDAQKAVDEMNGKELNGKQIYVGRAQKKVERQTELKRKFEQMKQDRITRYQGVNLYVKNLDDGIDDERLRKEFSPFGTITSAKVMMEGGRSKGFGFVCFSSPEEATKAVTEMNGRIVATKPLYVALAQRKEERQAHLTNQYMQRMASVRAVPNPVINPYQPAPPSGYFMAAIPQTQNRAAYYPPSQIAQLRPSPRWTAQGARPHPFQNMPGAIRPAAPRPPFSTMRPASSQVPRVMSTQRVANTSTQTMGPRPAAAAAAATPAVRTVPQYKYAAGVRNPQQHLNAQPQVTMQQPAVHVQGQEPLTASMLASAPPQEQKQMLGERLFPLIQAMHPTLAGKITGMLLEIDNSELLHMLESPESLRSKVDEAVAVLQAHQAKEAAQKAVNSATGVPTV
Bcl-2-like protein 10, sequence (Q9HD36 whole entry): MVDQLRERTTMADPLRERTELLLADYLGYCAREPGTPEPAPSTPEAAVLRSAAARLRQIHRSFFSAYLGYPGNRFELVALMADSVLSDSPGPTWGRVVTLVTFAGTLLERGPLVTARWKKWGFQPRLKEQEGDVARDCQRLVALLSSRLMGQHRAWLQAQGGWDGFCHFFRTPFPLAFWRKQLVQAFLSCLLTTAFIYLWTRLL
Aryl hydrocarbon receptor, sequence (P35869 whole entry): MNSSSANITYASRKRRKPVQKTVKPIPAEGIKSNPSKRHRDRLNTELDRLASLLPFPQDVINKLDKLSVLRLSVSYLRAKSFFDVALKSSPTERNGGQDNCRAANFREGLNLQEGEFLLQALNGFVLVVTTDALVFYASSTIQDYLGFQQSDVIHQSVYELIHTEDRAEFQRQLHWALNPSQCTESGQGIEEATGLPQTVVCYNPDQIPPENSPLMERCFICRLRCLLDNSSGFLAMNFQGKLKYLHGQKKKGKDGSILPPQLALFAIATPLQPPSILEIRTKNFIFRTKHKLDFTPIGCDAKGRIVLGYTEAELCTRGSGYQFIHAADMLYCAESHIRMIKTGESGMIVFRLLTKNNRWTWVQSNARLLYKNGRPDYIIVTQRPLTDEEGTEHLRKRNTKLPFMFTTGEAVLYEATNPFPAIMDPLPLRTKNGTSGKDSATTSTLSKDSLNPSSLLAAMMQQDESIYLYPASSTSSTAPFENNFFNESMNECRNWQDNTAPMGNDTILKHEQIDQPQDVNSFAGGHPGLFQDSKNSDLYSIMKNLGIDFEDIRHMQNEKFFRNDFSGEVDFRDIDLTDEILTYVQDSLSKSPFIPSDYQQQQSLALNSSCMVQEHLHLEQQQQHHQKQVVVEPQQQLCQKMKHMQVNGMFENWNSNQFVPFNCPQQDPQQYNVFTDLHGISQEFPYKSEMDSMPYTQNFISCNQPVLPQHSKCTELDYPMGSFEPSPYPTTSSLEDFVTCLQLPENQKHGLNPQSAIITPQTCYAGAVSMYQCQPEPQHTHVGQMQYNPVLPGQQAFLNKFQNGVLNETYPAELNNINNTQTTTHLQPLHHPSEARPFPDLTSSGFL
DNA dC->dU-editing enzyme APOBEC-3G, sequence (Q9HC16 whole entry): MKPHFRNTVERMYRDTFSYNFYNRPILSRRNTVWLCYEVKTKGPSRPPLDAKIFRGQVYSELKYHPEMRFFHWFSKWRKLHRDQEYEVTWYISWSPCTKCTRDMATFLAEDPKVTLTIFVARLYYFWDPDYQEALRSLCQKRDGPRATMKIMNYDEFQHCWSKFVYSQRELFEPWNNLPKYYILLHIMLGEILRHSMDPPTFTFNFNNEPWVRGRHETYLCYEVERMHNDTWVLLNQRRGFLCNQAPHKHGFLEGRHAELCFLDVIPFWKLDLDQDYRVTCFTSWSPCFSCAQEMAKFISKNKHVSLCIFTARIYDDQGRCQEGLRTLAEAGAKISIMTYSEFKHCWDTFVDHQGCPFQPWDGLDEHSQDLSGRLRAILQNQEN
Melanin-concentrating hormone receptor 1, sequence (Q99705 whole entry): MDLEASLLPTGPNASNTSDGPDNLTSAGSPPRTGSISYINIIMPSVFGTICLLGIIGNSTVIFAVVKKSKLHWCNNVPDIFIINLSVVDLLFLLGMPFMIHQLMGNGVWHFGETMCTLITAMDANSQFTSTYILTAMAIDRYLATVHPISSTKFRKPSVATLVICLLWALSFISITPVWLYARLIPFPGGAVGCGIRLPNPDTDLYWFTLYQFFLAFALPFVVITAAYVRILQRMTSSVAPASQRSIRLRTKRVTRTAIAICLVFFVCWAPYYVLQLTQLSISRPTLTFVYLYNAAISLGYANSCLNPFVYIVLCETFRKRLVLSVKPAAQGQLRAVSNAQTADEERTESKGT
Voltage-dependent T-type calcium channel subunit alpha-1H, sequence (O95180 whole entry): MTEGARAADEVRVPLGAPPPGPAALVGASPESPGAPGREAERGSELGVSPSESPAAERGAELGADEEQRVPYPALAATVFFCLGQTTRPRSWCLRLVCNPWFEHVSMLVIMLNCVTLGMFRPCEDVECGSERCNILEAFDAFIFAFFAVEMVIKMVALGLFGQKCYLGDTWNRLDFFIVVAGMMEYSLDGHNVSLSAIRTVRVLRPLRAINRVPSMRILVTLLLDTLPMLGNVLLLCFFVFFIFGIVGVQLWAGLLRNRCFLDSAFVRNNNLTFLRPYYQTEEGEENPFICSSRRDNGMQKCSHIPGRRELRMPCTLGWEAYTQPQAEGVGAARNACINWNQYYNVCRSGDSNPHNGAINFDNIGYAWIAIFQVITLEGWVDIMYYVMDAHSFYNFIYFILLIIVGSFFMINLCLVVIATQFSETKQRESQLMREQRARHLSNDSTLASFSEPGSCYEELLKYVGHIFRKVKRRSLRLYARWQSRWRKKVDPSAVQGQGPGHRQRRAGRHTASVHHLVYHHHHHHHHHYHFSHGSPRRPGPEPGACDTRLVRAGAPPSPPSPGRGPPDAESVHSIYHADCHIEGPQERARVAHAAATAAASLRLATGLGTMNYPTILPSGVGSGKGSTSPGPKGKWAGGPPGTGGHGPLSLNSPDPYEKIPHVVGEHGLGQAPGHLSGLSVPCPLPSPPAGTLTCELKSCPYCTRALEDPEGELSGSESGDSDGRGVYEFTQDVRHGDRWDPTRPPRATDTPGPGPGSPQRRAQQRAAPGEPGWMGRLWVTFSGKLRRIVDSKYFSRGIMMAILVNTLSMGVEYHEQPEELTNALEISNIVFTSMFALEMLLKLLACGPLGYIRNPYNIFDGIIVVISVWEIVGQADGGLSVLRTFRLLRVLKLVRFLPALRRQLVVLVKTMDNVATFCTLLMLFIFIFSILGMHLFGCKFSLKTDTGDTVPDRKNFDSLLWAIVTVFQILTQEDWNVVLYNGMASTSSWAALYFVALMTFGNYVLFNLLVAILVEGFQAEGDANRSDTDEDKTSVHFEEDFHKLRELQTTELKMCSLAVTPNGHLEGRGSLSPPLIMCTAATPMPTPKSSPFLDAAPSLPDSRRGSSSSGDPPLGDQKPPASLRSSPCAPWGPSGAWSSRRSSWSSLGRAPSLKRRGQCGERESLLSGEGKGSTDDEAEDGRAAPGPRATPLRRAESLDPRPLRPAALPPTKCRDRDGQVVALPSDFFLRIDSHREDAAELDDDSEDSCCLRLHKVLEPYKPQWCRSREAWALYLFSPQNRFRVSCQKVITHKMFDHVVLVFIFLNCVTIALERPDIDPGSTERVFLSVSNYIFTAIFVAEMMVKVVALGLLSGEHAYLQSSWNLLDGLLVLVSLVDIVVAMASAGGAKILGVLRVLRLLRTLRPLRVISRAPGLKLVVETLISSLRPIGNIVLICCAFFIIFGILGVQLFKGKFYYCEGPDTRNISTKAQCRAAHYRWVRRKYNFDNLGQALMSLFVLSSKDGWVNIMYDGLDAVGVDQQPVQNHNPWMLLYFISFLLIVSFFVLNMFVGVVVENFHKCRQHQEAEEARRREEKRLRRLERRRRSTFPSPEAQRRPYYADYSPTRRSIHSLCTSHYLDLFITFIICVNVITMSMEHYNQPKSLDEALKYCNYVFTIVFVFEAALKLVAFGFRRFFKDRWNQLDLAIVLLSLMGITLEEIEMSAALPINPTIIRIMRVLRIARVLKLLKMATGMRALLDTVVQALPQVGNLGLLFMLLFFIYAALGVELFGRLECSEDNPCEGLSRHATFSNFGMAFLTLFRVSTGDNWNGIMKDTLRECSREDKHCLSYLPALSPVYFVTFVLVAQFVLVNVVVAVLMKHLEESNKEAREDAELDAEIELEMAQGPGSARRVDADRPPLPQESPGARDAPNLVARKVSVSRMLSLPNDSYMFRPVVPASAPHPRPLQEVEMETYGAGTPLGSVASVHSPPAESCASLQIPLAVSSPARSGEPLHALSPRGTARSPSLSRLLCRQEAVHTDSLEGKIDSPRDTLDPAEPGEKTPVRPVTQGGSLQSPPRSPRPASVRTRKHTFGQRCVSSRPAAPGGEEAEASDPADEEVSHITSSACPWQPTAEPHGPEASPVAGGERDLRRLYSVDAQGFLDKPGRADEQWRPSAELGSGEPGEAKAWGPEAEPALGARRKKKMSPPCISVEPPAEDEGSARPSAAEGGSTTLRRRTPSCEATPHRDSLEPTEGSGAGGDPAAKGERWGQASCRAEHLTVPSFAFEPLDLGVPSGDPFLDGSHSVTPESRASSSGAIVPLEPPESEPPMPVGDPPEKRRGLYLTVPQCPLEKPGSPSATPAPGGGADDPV

O=C(Nc1ccc(N2CCOCC2)c(S(=O)(=O)Nc2ccc(Cl)cc2)c1)c1cnccn1
IC50 [1]: > 66 µM (inactive)
IC50 [2]: 51.6 µM (active)
IC50 [3]: > 66 µM (inactive)

Cc1ccc(O)c(N=Cc2cc(Cc3ccccc3)cc([N+](=O)[O-])c2O)c1
IC50 [4]: > 20 µM (inactive)
IC50 [5]: > 20 µM (inactive)
IC50 [6]: > 20 µM (inactive)
IC50 [7]: > 20 µM (inactive)

Cc1ccc(NC(=O)Nc2cccs2)c(Cl)c1
IC50 [8]: > 100 µM (inactive)

Cc1ccc(-c2cc(C(F)(F)F)c(C#N)c(SCCC#N)n2)o1
EC50 [9]: > 85.2 µM (inactive)
EC50 [10]: > 85.2 µM (inactive)

CN1C=CC2=C(C#N)C(N)C(C#N)(C#N)C(c3ccccc3)C2C1 (stereo not drawn)
IC50 [11]: 1.01 µM (active)

CCN(CCO)c1ncnc2c1sc1nc(CC(C)C)c3c(c12)CC(C)(C)OC3
EC50 [12]: 0.0454 µM (active)
Absolute IC50 (XBP1) [13]: 10 µM

Cc1cc(C)c(NC(=O)c2cc3c(nc4sccn43)s2)c(C)c1
IC50 [8]: > 100 µM (inactive)

CCc1nnc(NC(=O)CSc2nnc(C3CCCCC3)n2-c2cccc(Cl)c2)s1
EC50 [14]: > 120 µM (not active)
EC50 [15]: 7.01 µM (active)
EC50 [16]: > 120 µM (not active)
EC50 [17]: > 120 µM (not active)

CCOc1ccc(COc2c(Cl)cnn(-c3ccc(C)cc3)c2=O)cc1OCC
IC50 [18]: > 20 µM (inactive)

COc1cc(F)ccc1Oc1c(Cl)cnn(-c2ccc(C)cc2)c1=O
IC50 [19]: 9.5 µM (active)
IC50 [18]: 9.7 µM (active)

O=C(N/N=C/c1c[nH]c2ccccc12)C1COc2ccccc2O1 (stereo not drawn)
EC50 [20]: 5.67 µM (active)
IC50 [21]: > 64 µM (inactive)
